According to PubChem BioAssay (NCI):
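Step 1: Grow cells in 96-well plates. Step 2: Expose to compound for 48 hours at 5 concentrations. Step 3: Interpolate endpoints linearly; if unreached, use highest concentration. Abbreviation: GI50, concentration required for 50% inhibition of growth. TGI: total growth inhibition.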

What was measured:
Assay in all cases: NCI-60 cell line screen, 48 h
A549 NSCLC = system: A549 NSCLC
CCRF-CEM leukemia = system: CCRF-CEM leukemia
COLO 205 colon = system: COLO 205 colon
M14 melanoma = system: M14 melanoma
NCI-H460 lung = system: NCI-H460 lung
OVCAR-8 ovarian = system: OVCAR-8 ovarian
PC-3 prostate = system: PC-3 prostate
SF-268 CNS = system: SF-268 CNS
SK-MEL-28 melanoma = system: SK-MEL-28 melanoma
SNB-75 CNS = system: SNB-75 CNS

SMILES | TGI (A549 NSCLC) | TGI (CCRF-CEM leukemia) | TGI (COLO 205 colon) | TGI (M14 melanoma) | TGI (NCI-H460 lung) | TGI (OVCAR-8 ovarian) | TGI (PC-3 prostate) | TGI (SF-268 CNS) | TGI (SK-MEL-28 melanoma) | TGI (SNB-75 CNS) | GI50 (A549 NSCLC) | GI50 (CCRF-CEM leukemia) | GI50 (COLO 205 colon) | GI50 (M14 melanoma) | GI50 (NCI-H460 lung) | GI50 (OVCAR-8 ovarian) | GI50 (PC-3 prostate) | GI50 (SF-268 CNS) | GI50 (SK-MEL-28 melanoma) | GI50 (SNB-75 CNS)
C=CCC1(c2ccc(OC)cc2)C=CC(=O)CC1 (stereo not given) | > 100 µM | > 100 µM | > 100 µM | > 100 µM | > 100 µM | > 100 µM | > 100 µM | > 100 µM | > 100 µM | > 100 µM |  |  |  |  |  |  |  |  |  | 
N#C/C(=C\c1ccc2ccccc2c1)C(=O)c1ccccc1 | > 100 µM | 63.7 µM | > 100 µM | > 88.4 µM | > 100 µM | > 46.4 µM | > 100 µM | > 100 µM | > 100 µM | > 100 µM |  |  |  |  |  |  |  |  |  | 
CC(NCCC(c1ccccc1)c1ccccc1)c1ccccc1 (stereo not given) | 12.8 µM | 8.73 µM | 2.85 µM | 3.31 µM | 3.26 µM | 3.37 µM | 6.96 µM | 17.5 µM | 3.26 µM | 10.9 µM | 3.33 µM | 2.38 µM | 1.53 µM | 1.73 µM | 1.71 µM | 1.7 µM | 2.1 µM | 4.48 µM | 1.76 µM | 2.79 µM
COc1ccc(-c2ccc(=O)oc2C#Cc2cc(OC)c(OC)c(OC)c2)cc1O | 21.9 µM | > 100 µM | > 40.4 µM | > 100 µM | 4.59 µM | > 100 µM | > 100 µM | > 100 µM | > 100 µM | 2.92 µM | 0.563 µM | 0.331 µM | 4.05 µM | 0.521 µM | 0.287 µM | 0.775 µM | 0.621 µM | 0.558 µM | 3.25 µM | 0.167 µM
C[C@@H]1C[C@@H]([C@@H](CC2CC(=O)NC(=O)C2)OC(=O)CC(=O)c2ccccc2)C(=O)[C@@H](C)C1 | > 100 µM | > 85.5 µM | > 100 µM | > 49.1 µM | > 43.9 µM | > 68.8 µM | > 100 µM | > 32 µM | > 29.6 µM | > 55.1 µM | 0.567 µM | 0.466 µM | 0.849 µM | 0.588 µM | 0.461 µM | 0.405 µM | 0.444 µM | 0.908 µM | 0.752 µM | 0.911 µM
CCN1CCN(c2cc(C)c3cc(NC(=O)c4ccc(OC)c(OC)c4)ccc3n2)CC1 | > 100 µM | > 100 µM | > 37.6 µM | > 100 µM | 31.3 µM | > 100 µM | > 100 µM | > 75.1 µM | > 59.7 µM | > 61.3 µM | 11.1 µM | > 43.1 µM | 3.23 µM | 8.88 µM | 10.5 µM | 50.7 µM | 7.3 µM | 9.19 µM | 19.9 µM | 5.54 µM
N=c1c2c(-c3ccccc3)c(-c3ccccc3)n(Cc3ccccc3)c2ncn1C1CCC(O)CC1 (stereo not given) | 12.9 µM | 9.25 µM | 2.23 µM | 2.38 µM | 1.5 µM | 19 µM | 5.08 µM | 15 µM | 2.22 µM | 8.85 µM | 0.103 µM | 0.321 µM | 0.417 µM | 0.894 µM | 0.0542 µM | 0.072 µM | 0.466 µM | 0.118 µM | 0.624 µM | 0.92 µM
